The values that follow come from patent US4294958A, “Water-soluble salts of trimethylammonium derivatives of polyene macrolide antibiotics and the preparation thereof” (Politechnika Gdanska, priority 1978, dated 1981).

Common to all, as to assay type: cell-based
Data set [1] in a line: haemolytic activity (hemoglobin, determined spectrophotometrically). The source says:
(§1) EH50 means the concentration of the substance causing in conditions
(§2) 50% of hemoglobin determined spectrophotometrically at λ = 550 nm.

Data set [2] deals with Saccharomyces cerevisiae cells. Put plainly: antifungal activity: inhibition of growth of Saccharomyces cerevisiae in liquid standard medium. Here is the method:
IC50 means the concentration of the substance causing 50% inhibitio
of the growth of Saccharomyces cerevisiae cells in liquid standard medium
determined spectrophotometrically at λ = 600 nm after 24 hours

For another data set, the system named is hemoglobin. Put plainly: haemolytic activity (hemoglobin, determined spectrophotometrically).
Source text: as §1, §2

[3] abbreviates: in vitro haemolysis, 50% of hemoglobin, λ = 550 nm, read-out: EH50 (the source's name).
The mark [4] stands for this setting: 50% inhibition of growth of Saccharomyces cerevisiae, liquid standard medium, λ = 600 nm, 24 hours, 28° C., read-out: IC50.
Where [5] appears, read: in vitro haemolysis, 50% of hemoglobin, λ = 550 nm.
Where [6] appears, read: 50% inhibition of growth of Saccharomyces cerevisiae, liquid standard medium, λ = 600 nm, 24 hours, 28° C.

Values after ≈ are worked out from the molar mass of the structure shown. Like-named read-outs stand apart in the source and are kept apart here.

As usually defined, the IC50 is the concentration that inhibits the measured activity by half. Turning to `C[C@@H]1[C@H](O)[C@@H](C)/C=C/C=C/C=C/C=C/C=C/C=C/C=C/[C@H](O[C@@H]2O[C@H](C)[C@@H](O)[C@H](N)[C@@H]2O)C[C@@H]2O[C@](O)(C[C@@H](O)C[C@@H](O)[C@H](O)CC[C@@H](O)C[C@@H](O)CC(=O)O[C@H]1C)C[C@H](O)[C@H]2C(=O)O` [Amphotericin B, amphotericin B], the HC50 in data set [1] (setting [3]) amounted to 5 µg/mL. In data set [2] (Saccharomyces cerevisiae, 24 h), it took 0.03 µg/mL (≈ 0.0325 µM) to reach half-maximal inhibition (IC50).
On to `COc1cc2c(c3oc(-c4ccccc4)cc(=O)c13)C=CC(C)(C)O2` [Candidin, candidin], for which the HC50 in data set [1] (setting [3]) stood at 20 µg/mL. Moreover, in data set [2] (setting [4]), the IC50 is 0.054 µg/mL (≈ 0.161 µM).
The matching figures for `COC(=O)[C@H]1[C@@H]2C[C@@H](O[C@@H]3O[C@H](C)[C@@H](O)[C@H]([N+](C)(C)C)[C@@H]3O)/C=C/C=C/C=C/C=C/C=C/C=C/C=C/[C@H](C)[C@@H](O)[C@@H](C)[C@H](C)OC(=O)C[C@H](O)C[C@H](O)CC[C@@H](O)[C@H](O)C[C@H](O)C[C@](O)(C[C@@H]1O)O2` [DMS-Amphotericin B, N,N,N-trimethylamphotericin B methyl ester]: 5 µg/mL and 0.08 µg/mL.
`C[C@@H]1[C@H](O)[C@@H](C)/C=C/C=C/C=C/C=C/C=C/C=C/C=C/[C@H](O[C@@H]2O[C@H](C)[C@@H](O)[C@H](N)[C@@H]2O)C[C@@H]2O[C@](O)(C[C@@H](O)[C@H](O)CC[C@@H](O)CC(=O)C[C@@H](O)CC(=O)O[C@H]1C)C[C@H](O)[C@H]2C(=O)O` [Mycoheptin, mycoheptin]: in the data set with hemoglobin (setting [5]), the EH50 is 15 µg/mL. In addition, the concentration for half-maximal inhibition (IC50) in data set [2] (setting [6]) was found to be 0.05 µg/mL (≈ 0.0542 µM).
In the same order, the values of `C[C@@H]1[C@H](O)[C@@H](C)/C=C/C=C/CC/C=C/C=C/C=C/C=C/C(O[C@H]2O[C@H](C)[C@@H](O)[C@H](N)[C@@H]2O)CC2O[C@](O)(CC(O)C(O)CCC(O)CC(O)CC(O)CC(=O)O[C@H]1C)CC(O)C2C(=O)O` (stereo partly drawn) [Nystatin, nystatin] are 50 µg/mL and 0.1 µg/mL (≈ 0.108 µM).
The molecule `C[C@@H]1C/C=C/C=C/C=C/C=C/[C@H](O[C@@H]2O[C@H](C)[C@@H](O)[C@H](N)[C@@H]2O)C[C@@H]2O[C@](O)(C[C@@H](O)C[C@H]3O[C@@H]3/C=C/C(=O)O1)C[C@H](O)[C@H]2C(=O)O` [Pimaricin, pimaricin] showed an HC50 in data set [1] of 100 µg/mL. The IC50 in data set [2] (setting [4]) was determined as 1 µg/mL (≈ 1.5 µM).
For `CCC[C@@H]1C/C=C/C=C/C=C/C=C/[C@H](O[C@@H]2O[C@H](C)[C@@H](O)[C@H](N)[C@@H]2O)C[C@@H]2O[C@](O)(C[C@@H](O)CCCC(=O)C[C@@H](O)[C@H](CC)C(=O)O1)C[C@H](O)[C@H]2C(=O)O` [Rimocidin, rimocidin], the EH50 in the data set on hemoglobin (setting [5]) was determined as 30 µg/mL. This molecule also registered an IC50 in data set [2] (setting [6]) of 1.5 µg/mL (≈ 1.95 µM).
The matching figures for “N,N,N-dimethyl-mycoheptin methyl ester [DMS-Mycoheptin]”: 65 µg/mL and 0.2 µg/mL.
In turn, “N,N,N-trimethylcandidin methyl ester [DMS-Candidin]” showed an EH50 with hemoglobin (setting [5]) of 70 µg/mL. This molecule also showed an IC50 in data set [2] (setting [6]) of 0.15 µg/mL.
The matching figures for “N,N,N-trimethylnystatin methyl ester [DMS-Nystatin]”: 100 µg/mL and 0.25 µg/mL.
As to “N,N,N-trimethylpolifungin methyl ester [DMS-Polifungin]”, the EH50 in the data set with hemoglobin is 120 µg/mL. This molecule also had an IC50 in data set [2] (setting [6]) of 0.15 µg/mL.
“N,N,N-trimethylrimocidin methyl ester [DMS-Rimocidin]” had an EH50 with hemoglobin (setting [5]) of 50 µg/mL. In data set [2] (setting [6]), this molecule displayed an IC50 of 2.5 µg/mL.
The matching figures for aureofacin: 0.35 µg/mL and 0.005 µg/mL.
Consider candicidin, for which the EH50 in the data set with hemoglobin (setting [5]) stood at 2.5 µg/mL. In data set [2] (setting [6]), this molecule yielded a 50% inhibitory concentration (IC50) of 0.005 µg/mL.
In the same order, the values of levorin are 2.5 µg/mL and 0.007 µg/mL.
In the same order, the values of perimycin are 5 µg/mL and 0.002 µg/mL.
In the data set with hemoglobin, polyfungin [Polifungin] showed an EH50 of 20 µg/mL. In data set [2] (setting [6]), this molecule gave an IC50 of 0.08 µg/mL.
For trichomycin, the EH50 in the data set on hemoglobin (setting [5]) amounted to 3 µg/mL. Also, in data set [2] (setting [6]), the IC50 came out at 0.005 µg/mL.
